In brackets after ≈: the same amount, converted by molar mass. Read-outs that look alike come from different tables or passages of the source.
Columns and labels:
Format in all cases: cell-based
Klebsiella pneumoniae = assay: MIC, broth microdilution, standard strains and Japanese clinical isolates (Example 5, Table 4)
Enterobacter hormaechei = assay: as above; settings: ATCCBAA2082; KUB4001 Enterobacter hormaechei ATCC BAA-2082, KPC-2
P. aeruginosa = assay: MIC, broth microdilution, CDC/FDA Antibiotic Resistance Isolate Bank (Example 7, Tables 10, 15); settings: for MIC: Pseudomonas aeruginosa, read-out: MIC

C[C@@H](O)[C@H]1C(=O)N2C(C(=O)O)=C(S[C@@H]3CN[C@H](C(=O)N(C)C)C3)[C@H](C)[C@H]12 [MEPM, meropenem]
MIC (Klebsiella pneumoniae; ATCCBAA1705, KUB3152 Klebsiella pneumoniae ATCC BAA-1705, KPC-2): 4 µg/mL (≈ 10.4 µM) | MIC (Klebsiella pneumoniae; ATCCBAA1898, KUB3996 Klebsiella pneumoniae ATCC BAA-1898, KPC-2): 32 µg/mL (≈ 83.4 µM) | MIC (Klebsiella pneumoniae; ATCCBAA1899, KUB3997 Klebsiella pneumoniae ATCC BAA-1899, KPC-2): 8 µg/mL (≈ 20.9 µM) | MIC (Klebsiella pneumoniae; ATCCBAA1900, KUB3998 Klebsiella pneumoniae ATCC BAA-1900, KPC-3): 8 µg/mL (≈ 20.9 µM) | MIC (Klebsiella pneumoniae; ATCCBAA1902, KUB3153 Klebsiella pneumoniae ATCC BAA-1902, KPC-3): 64 µg/mL (≈ 167 µM) | MIC (Klebsiella pneumoniae; ATCCBAA1903, KUB3154 Klebsiella pneumoniae ATCC BAA-1903, KPC-2): 4 µg/mL (≈ 10.4 µM) | MIC (Klebsiella pneumoniae; ATCCBAA1904, KUB3999 Klebsiella pneumoniae ATCC BAA-1904, KPC-3): 2 µg/mL (≈ 5.22 µM) | MIC (Klebsiella pneumoniae; ATCCBAA1905, KUB3155 Klebsiella pneumoniae ATCC BAA-1905, KPC-2): 8 µg/mL (≈ 20.9 µM) | MIC (Klebsiella pneumoniae; ATCCBAA2078, KUB4000 Klebsiella pneumoniae ATCC BAA-2078, KPC-3): 4 µg/mL (≈ 10.4 µM) | MIC (Klebsiella pneumoniae; ATCCBAA2146, KUB4011 Klebsiella pneumoniae ATCC BAA-2146, NDM-1): 64 µg/mL (≈ 167 µM) | MIC (Klebsiella pneumoniae; ATCCBAA2342, KUB4003 Klebsiella pneumoniae ATCC BAA-2342, KPC-3): 4 µg/mL (≈ 10.4 µM) | MIC (Klebsiella pneumoniae; ATCCBAA2343, KUB4004 Klebsiella pneumoniae ATCC BAA-2343, KPC-3): 16 µg/mL (≈ 41.7 µM) | MIC (Klebsiella pneumoniae; ATCCBAA2344, KUB3156 Klebsiella pneumoniae ATCC BAA-2344, KPC-2): 4 µg/mL (≈ 10.4 µM) | MIC (Klebsiella pneumoniae; ATCCBAA2470, KUB3157 Klebsiella pneumoniae subsp. pneumoniae ATCC BAA-2470, NDM-1): 16 µg/mL (≈ 41.7 µM) | MIC (Klebsiella pneumoniae; ATCCBAA2473, KUB4009 Klebsiella pneumoniae ATCC BAA-2473, NDM-1): 64 µg/mL (≈ 167 µM) | MIC (Klebsiella pneumoniae; ATCCBAA2524, KUB3158 Klebsiella pneumoniae subsp. pneumoniae ATCC BAA-2524, OXA-48): 0.25 µg/mL (≈ 0.652 µM) | MIC (Klebsiella pneumoniae; KUB3163 Klebsiella pneumoniae Clinical isolate, IMP-1): 0.5 µg/mL (≈ 1.3 µM) | MIC (Klebsiella pneumoniae; KUB3164 Klebsiella pneumoniae Clinical isolate, IMP-6): 2 µg/mL (≈ 5.22 µM) | MIC (Klebsiella pneumoniae; KUB3166 Klebsiella pneumoniae Clinical isolate, IMP-1): 0.5 µg/mL (≈ 1.3 µM) | MIC (Klebsiella pneumoniae; KUB3606 Klebsiella pneumoniae Clinical isolate, KPC-38): 256 µg/mL (≈ 668 µM) | MIC (Klebsiella pneumoniae; KUB3607 Klebsiella pneumoniae Clinical isolate, IMP-1): 0.5 µg/mL (≈ 1.3 µM) | MIC (Klebsiella pneumoniae; KUB3628 Klebsiella pneumoniae Clinical isolate, IMP-1): 8 µg/mL (≈ 20.9 µM) | MIC (Klebsiella pneumoniae; KUB3630 Klebsiella pneumoniae Clinical isolate, IMP-1): 1 µg/mL (≈ 2.61 µM) | MIC (Klebsiella pneumoniae; KUB3631 Klebsiella pneumoniae Clinical isolate, IMP-1): 4 µg/mL (≈ 10.4 µM) | MIC (Klebsiella pneumoniae; KUB3633 Klebsiella pneumoniae Clinical isolate, IMP-6): 1 µg/mL (≈ 2.61 µM) | MIC (Klebsiella pneumoniae; KUB3634 Klebsiella pneumoniae Clinical isolate, IMP-6): 1 µg/mL (≈ 2.61 µM) | MIC (Klebsiella pneumoniae; KUB3635 Klebsiella pneumoniae Clinical isolate, IMP-1): 32 µg/mL (≈ 83.4 µM) | MIC (Klebsiella pneumoniae; NCTC13439, KUB3159 Klebsiella pneumoniae NCTC13439, VIM-1): 0.5 µg/mL (≈ 1.3 µM) | MIC (Klebsiella pneumoniae; NCTC13440, KUB3160 Klebsiella pneumoniae NCTC13440, VIM-1): 0.5 µg/mL (≈ 1.3 µM) | MIC (Enterobacter hormaechei): 16 µg/mL (≈ 41.7 µM) | MIC against 96 strains of P. aeruginosa MIC50 (P. aeruginosa; 96 strains of P. aeruginosa, β-lactamase inhibitor µg/mL in parentheses): 16 µg(mL) | MIC (P. aeruginosa; KUB No. 57 (continued 90 in the 40th table r2), AR Bank #44 (continued 5), no carbapenemase gene): 64 µg/mL (≈ 167 µM) | MIC (P. aeruginosa; KUB No. 5587, AR Bank #90, KPC-5): 32 µg/mL (≈ 83.4 µM) | MIC (P. aeruginosa; KUB No. 5591, AR Bank #94, no carbapenemase gene): 16 µg/mL (≈ 41.7 µM) | MIC (P. aeruginosa; KUB No. 5592, AR Bank #95, no carbapenemase gene): 8 µg/mL (≈ 20.9 µM) | MIC (P. aeruginosa; KUB No. 5607, AR Bank #110, VIM-2): 64 µg/mL (≈ 167 µM) | MIC (P. aeruginosa; KUB No. 5608, AR Bank #111, VIM-2): 32 µg/mL (≈ 83.4 µM) | MIC (P. aeruginosa; KUB No. 5662, AR Bank #229, no carbapenemase gene): 32 µg/mL (≈ 83.4 µM) | MIC (P. aeruginosa; KUB No. 5663, AR Bank #230, VIM-2): 64 µg/mL (≈ 167 µM) | MIC (P. aeruginosa; KUB No. 5666, AR Bank #233, no carbapenemase gene): 16 µg/mL (≈ 41.7 µM) | MIC (P. aeruginosa; KUB No. 5667, AR Bank #234, no carbapenemase gene): 2 µg/mL (≈ 5.22 µM) | MIC (P. aeruginosa; KUB No. 5668, AR Bank #235, no carbapenemase gene): 16 µg/mL (≈ 41.7 µM) | MIC (P. aeruginosa; KUB No. 5669, AR Bank #236, no carbapenemase gene): 2 µg/mL (≈ 5.22 µM) | MIC (P. aeruginosa; KUB No. 5670, AR Bank #237, no carbapenemase gene): 2 µg/mL (≈ 5.22 µM) | MIC (P. aeruginosa; KUB No. 5671, AR Bank #238, no carbapenemase gene): ≤ 0.25 µg/mL | MIC (P. aeruginosa; KUB No. 5672, AR Bank #239, GES-1, VIM-11): 64 µg/mL (≈ 167 µM) | MIC (P. aeruginosa; KUB No. 5676, AR Bank #243, VIM-2): 8 µg/mL (≈ 20.9 µM) | MIC (P. aeruginosa; KUB No. 5677, AR Bank #244, no carbapenemase gene): 16 µg/mL (≈ 41.7 µM) | MIC (P. aeruginosa; KUB No. 5678, AR Bank #245, VIM-2): 8 µg/mL (≈ 20.9 µM) | MIC (P. aeruginosa; KUB No. 5684, AR Bank #251, no carbapenemase gene): 1 µg/mL (≈ 2.61 µM) | MIC (P. aeruginosa; KUB No. 5685, AR Bank #252, no carbapenemase gene): 2 µg/mL (≈ 5.22 µM) | MIC (P. aeruginosa; KUB No. 5686, AR Bank #253, no carbapenemase gene): 0.5 µg/mL (≈ 1.3 µM) | MIC (P. aeruginosa; KUB No. 5687, AR Bank #254, VIM-2): 64 µg/mL (≈ 167 µM) | MIC (P. aeruginosa; KUB No. 5689, AR Bank #256, no carbapenemase gene): 2 µg/mL (≈ 5.22 µM) | MIC (P. aeruginosa; KUB No. 5691, AR Bank #258, no carbapenemase gene): 2 µg/mL (≈ 5.22 µM) | MIC (P. aeruginosa; KUB No. 5692, AR Bank #259, no carbapenemase gene): 0.5 µg/mL (≈ 1.3 µM) | MIC (P. aeruginosa; KUB No. 5694, AR Bank #261, no carbapenemase gene): 0.5 µg/mL (≈ 1.3 µM) | MIC (P. aeruginosa; KUB No. 5695, AR Bank #262, no carbapenemase gene): 0.5 µg/mL (≈ 1.3 µM)

— patent publication EP4635500A1, “THERAPEUTIC AGENT FOR BACTERIAL INFECTION” (Sumitomo Pharma Co., Ltd., priority 2022, dated 2024)
